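Five concentrations, 48 hours, 96-well plates. GI50 = concentration required for 50% inhibition of growth. TGI is the concentration that stops growth completely.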
Legend:
Test in all cases: NCI-60 cell line screen, 48 h
SK-MEL-28 melanoma = tested on: SK-MEL-28 melanoma
NCI-H226 lung = tested on: NCI-H226 lung
RXF 393 renal = tested on: RXF 393 renal
OVCAR-5 ovarian = tested on: OVCAR-5 ovarian
HOP-92 NSCLC = tested on: HOP-92 NSCLC
MALME-3M melanoma = tested on: MALME-3M melanoma
MOLT-4 leukemia = tested on: MOLT-4 leukemia
OVCAR-3 ovarian = tested on: OVCAR-3 ovarian
A498 renal = tested on: A498 renal
UACC-257 melanoma = tested on: UACC-257 melanoma
HT29 colon = tested on: HT29 colon
ACHN renal = tested on: ACHN renal
HCT-15 colon = tested on: HCT-15 colon
SNB-19 CNS = tested on: SNB-19 CNS
NCI-H460 lung = tested on: NCI-H460 lung
MDA-MB-435 = tested on: MDA-MB-435
KM12 colon = tested on: KM12 colon
SF-539 CNS = tested on: SF-539 CNS
EKVX NSCLC = tested on: EKVX NSCLC
COLO 205 colon = tested on: COLO 205 colon
HS 578T breast = tested on: HS 578T breast
A549 NSCLC = tested on: A549 NSCLC
T-47D breast = tested on: T-47D breast
PC-3 prostate = tested on: PC-3 prostate
DU-145 prostate = tested on: DU-145 prostate
LOX IMVI melanoma = tested on: LOX IMVI melanoma
SW-620 colon = tested on: SW-620 colon
TK-10 renal = tested on: TK-10 renal
MCF7 breast = tested on: MCF7 breast

SMILES: Oc1[nH]c2cc(Cl)ccc2c1/C=c1/ccc2c(c1)N=C(c1cc(F)cc(F)c1)N=2
- GI50 (SK-MEL-28 melanoma): 2.78 µM
- TGI (SK-MEL-28 melanoma): 13.6 µM
- GI50 (NCI-H226 lung): 5.78 µM
- TGI (NCI-H226 lung): 31 µM
- GI50 (RXF 393 renal): 2.08 µM
- TGI (RXF 393 renal): 6.27 µM
- GI50 (OVCAR-5 ovarian): 6.34 µM
- TGI (OVCAR-5 ovarian): 21.5 µM
- GI50 (HOP-92 NSCLC): 0.741 µM
- TGI (HOP-92 NSCLC): 8.16 µM
- GI50 (MALME-3M melanoma): 6.06 µM
- TGI (MALME-3M melanoma): 27.4 µM
- GI50 (MOLT-4 leukemia): 1.45 µM
- TGI (MOLT-4 leukemia): 5.72 µM
- GI50 (OVCAR-3 ovarian): 1.41 µM
- TGI (OVCAR-3 ovarian): 3.3 µM
- GI50 (A498 renal): 1.24 µM
- TGI (A498 renal): 6.36 µM
- GI50 (UACC-257 melanoma): 0.927 µM
- TGI (UACC-257 melanoma): 19.2 µM
- GI50 (HT29 colon): 1.72 µM
- TGI (HT29 colon): 5.94 µM
- GI50 (ACHN renal): 4.99 µM
- TGI (ACHN renal): 19.9 µM
- GI50 (HCT-15 colon): 3.37 µM
- TGI (HCT-15 colon): 14.7 µM
- GI50 (SNB-19 CNS): 6.22 µM
- TGI (SNB-19 CNS): 26.2 µM
- GI50 (NCI-H460 lung): 1.64 µM
- TGI (NCI-H460 lung): 6.77 µM
- GI50 (MDA-MB-435): 0.57 µM
- TGI (MDA-MB-435): 2.38 µM
- GI50 (KM12 colon): 2.2 µM
- TGI (KM12 colon): 7.06 µM
- GI50 (SF-539 CNS): 2.04 µM
- TGI (SF-539 CNS): 5.96 µM
- GI50 (EKVX NSCLC): 5.27 µM
- TGI (EKVX NSCLC): 32.4 µM
- GI50 (COLO 205 colon): 2.24 µM
- TGI (COLO 205 colon): 5.29 µM
- GI50 (HS 578T breast): 1.55 µM
- TGI (HS 578T breast): 10.2 µM
- GI50 (A549 NSCLC): 1.64 µM
- TGI (A549 NSCLC): 5.44 µM
- GI50 (T-47D breast): 4.27 µM
- TGI (T-47D breast): 17.7 µM
- GI50 (PC-3 prostate): 2.12 µM
- TGI (PC-3 prostate): 8.5 µM
- GI50 (DU-145 prostate): 1.98 µM
- TGI (DU-145 prostate): 4.45 µM
- GI50 (LOX IMVI melanoma): 2.22 µM
- TGI (LOX IMVI melanoma): 15.2 µM
- GI50 (SW-620 colon): 1.1 µM
- TGI (SW-620 colon): 9.32 µM
- GI50 (TK-10 renal): 5.53 µM
- TGI (TK-10 renal): 18.8 µM
- GI50 (MCF7 breast): 1.62 µM

Source: PubChem BioAssay (NCI)
